Assay results taken from patent US20240294551A1 (AMGEN INC., priority 2022, published 2024).
Structures can show the parent of a compound that is named as a salt. Where two headings read alike, the source gives them in different places.

Legend:
[1] = biological target: GDP-bound KRAS protein (aa 1-169), containing both G12D and C118A amino acid substitutions (Homo sapiens (Human), UniProt P01116, C118A/G12D); test: KRAS G12D Coupled Nucleotide Exchange Assay; format: biochemical
[2] = tested on: AsPC-1 cells; test: AsPC-1 CTG Assay (CellTiter-Glo cell viability); format: cell-based, human; conditions: first value of the cell, read-out: G12D/C/V Cell Proliferation CTG (72 h) AsPC-1
Outline: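 IC50 values derive from 4-parameter logistic fits of CellTiter-Glo luminescence, expressed relative to DMSO. Compound dilution series were applied to overnight-seeded AsPC-1 or SW620 cells (RPMI 1640, 10% FBS) for 72 h at 37 °C, 5% CO2.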

[3] = biological target: His-tagged KRAS G12D protein (Homo sapiens (Human), UniProt P01116, G12D); test: KRAS G12D TR-FRET Assay; format: binding
Outline: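 Each incubation ran at room temperature: enzyme with compound for 30 minutes, peptide for one hour, and detection reagents (0.4 nM europium anti-6×His, 5 nM streptavidin-d2) for one hour more. Protein and peptide stocks were each diluted to 20 nM before addition.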

[4] = tested on: MIA PaCa-2 cells; test: MIA PaCa-2 CTG Assay (CellTiter-Glo cell viability); format: cell-based, human; conditions: Homo sapiens, second value of the cell
Method: MIA PaCa-2 CTG Assay Protocol
MIA PaCa-2 (human pancreatic carcinoma; ATCC CRL-1420) cells were cultured in RPMI 1640 medium containing 10% fetal bovine serum and 1× penicillin/streptomycin/L-glutamine. Cells were seeded in 384-well plates at a density of 1.67E+04 cells/mL and incubated at 37° C., 5% CO2, overnight. Serially-diluted compound or DMSO was added to the cells, and plates were incubated at 37° C., 5% CO2 for 72 h. Cell viability was measured using a CellTiter-Glo® Luminescent Cell Viability Assay kit (Promega) according to the manufacturer's protocol. The luminescence signal of treated samples was normalized to DMSO control, and data were analyzed using a 4-parameter logistic model to calculate IC50 values.

[5] = tested on: Phosphorylation of ERK1/2 in AsPC-1 cells; test: Phospho-ERK1/2 MSD Assay; format: cell-based, human
Outline: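 Read-out: MSD electrochemiluminescent detection of phosphorylated ERK1/2 in whole-cell lysates, fitted to a 4-parameter logistic curve for IC50. Prior to lysis, AsPC-1 cells (25,000 per well) received a 2 h compound dose-response at 37 °C.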

[6] = read-out: KRAS G12D Coupled Exchange IC50
[7] = Homo sapiens, ASPC1, 72 h, AsPC-1, 72 h
[8] = read-out: KRAS G12D Binding IC50
[9] = Mia PaCa-2, 72 h, read-out: G12D/C/V Cell Proliferation CTG (72 h) Mia PaCa-2
[10] = Homo sapiens, ASPC1, 2 h, read-out: 2 h p-ERK (AsPC-1 cells), IC50
[11] = 2 h, read-out: 2 h p-ERK (AsPC-1 cells), IC50

Chain of GDP-bound KRAS protein (aa 1-169), containing both G12D and C118A amino acid substitutions (P01116 other isoform, or with tags, fused parts or gaps G12D/C118A): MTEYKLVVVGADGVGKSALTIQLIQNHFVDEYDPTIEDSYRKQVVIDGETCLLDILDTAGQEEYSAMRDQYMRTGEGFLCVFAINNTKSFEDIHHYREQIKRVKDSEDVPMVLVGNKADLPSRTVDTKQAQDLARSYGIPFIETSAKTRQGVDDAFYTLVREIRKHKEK
Chain of His-tagged KRAS G12D protein (P01116 other isoform, or with tags, fused parts or gaps G12D): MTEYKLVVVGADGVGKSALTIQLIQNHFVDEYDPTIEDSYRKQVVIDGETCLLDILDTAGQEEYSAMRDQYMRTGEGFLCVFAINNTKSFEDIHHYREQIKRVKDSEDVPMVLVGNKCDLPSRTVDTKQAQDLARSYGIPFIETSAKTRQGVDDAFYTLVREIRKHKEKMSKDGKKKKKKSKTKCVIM

IC50 [1, 6] | IC50 [2, 7] | IC50 [3, 8] | IC50 [4, 9] | IC50 [5, 10] | IC50 [5, 11] | IC50 ([1]; 2 hours compound pre-incubation, read-out: KRAS G12D Coupled Exchange) | IC50 ([2]; Homo sapiens, ASPC1, 72 h, AsPC-1 cells (G12D), 72 h) | IC50 ([3]; TR-FRET, read-out: KRAS G12D Binding) | IC50 ([4]; MIA PaCa-2 cells (G12C), 72 h, read-out: G12D/C/V Cell Proliferation CTG (72 h) MIA PaCa-2) | IC50 ([5]; Homo sapiens, ASPC1, 2 h, read-out: 2 h p-ERK (AsPC-1 cells)) | IC50 ([2]; AsPC-1, 72 h) | SMILES
2 nM | 186 nM | 5 nM | 162 nM | 25 nM |  |  |  |  |  |  |  | Cc1cc2[nH]ncc2c2c1CCOC(=O)O[C@H]1C[C@@]3(CCCN(C3)c3nc(OC[C@@H]4C[C@@H](F)CN4C)nc4c(F)c-2ncc34)C1 [Example 321, (1S,3R)-32-fluoro-24-(((2S,4R)-4-fluoro-1-methyl-2-pyrrolidinyl)methoxy)-10-methyl-4,6-dioxa-13,14,19,23,25,27-hexaazaheptacyclo[25.3.1.1~1,3~.1~18,22~.0~9,17~.0~12,16~.0~21,26~]tritriaconta-9,11,14,16,18(32),19,21,23,25-nonaen-5-one]
2 nM | 574 nM | 4 nM | 157 nM | 84 nM |  |  |  |  |  |  |  | C[C@@]12CCN(C1)c1nc(OC[C@@]34CCCN3C[C@H](F)C4)nc3c(F)c(ncc13)-c1cc(O)cc3ccc(F)c(c13)CCCC(=O)N2 [Example 10, (14R)-21,30-Difluoro-8-(((2R,7aS)-2-fluorotetrahydro-1H-pyrrolo[1,2-a]pyrrol-7a(5H)-yl)methoxy)-26-hydroxy-14-methyl-3,7,9,11,15-pentaazahexacyclo[18.7.1.1˜2,6˜.1˜11,14˜.0˜5,10˜.0˜24,28˜]triaconta-1(27),2(30),3,5,7,9,20,22,24(28),25-decaen-16-one 2,2,2-trifluoroacetate salt]
1 nM | 141 nM | 3 nM | 11 nM | 6.7 nM |  |  |  |  |  |  |  | C[C@@]12COCCN(C1)c1nc(OC[C@@]34CCCN3C[C@H](F)C4)nc3c(F)c(ncc13)-c1c3c(cc4[nH]ncc14)CC[C@H]3CCOC(=O)O2 [Example 365, (16S,22S)-34-fluoro-8-(((2R,7aS)-2-fluorotetrahydro-1H-pyrrolo[1,2-a]pyrrol-7a(5H)-yl)methoxy)-16-methyl-14,17,19-trioxa-3,7,9,11,28,29-hexaazaheptacyclo[20.9.1.1~2,6~.1~11,16~.0~5,10~.0~25,32~.0~27,31~]tetratriaconta-1(31),2(34),3,5,7,9,25(32),26,29-nonaen-18-one]
4 nM |  | 10 nM | 320 nM | 262 nM |  |  |  |  |  |  |  | C[C@@]12COCCN(C1)c1nc(OC[C@@]34CCCN3C[C@H](F)C4)nc3c(F)c(ncc13)-c1cccc(Cl)c1CCCOC(=O)O2 [Example 200, (23S)-15-chloro-29-fluoro-4-(((2R,7aS)-2-fluorotetrahydro-1H-pyrrolo[1,2-a]pyrrol-7a(5H)-yl)methoxy)-23-methyl-20,22,25-trioxa-1,3,5,9-tetraazapentacyclo[21.4.1.1~6,10~.0~2,7~.0~11,16~]nonacosa-2,4,6,8,10(29),11,13,15-octaen-21-one]
2 nM | 139 nM | 4 nM | 26 nM | 9.2 nM |  |  |  |  |  |  |  | O=C1OCC[C@@H]2CCc3cc4[nH]ncc4c(c32)-c2ncc3c(nc(OC[C@@]45CCCN4C[C@H](F)C5)nc3c2F)N2CCOC[C@H](C2)O1 [Example 367, (16S,22S)-34-fluoro-8-(((2R,7aS)-2-fluorotetrahydro-1H-pyrrolo[1,2-a]pyrrol-7a(5H)-yl)methoxy)-14,17,19-trioxa-3,7,9,11,28,29-hexaazaheptacyclo[20.9.1.1~2,6~.1~11,16~.0~5,10~.0~25,32~.0~27,31~]tetratriaconta-1(31),2(34),3,5,7,9,25(32),26,29-nonaen-18-one]
4 nM |  | 15 nM | 380 nM | 103 nM |  |  |  |  |  |  |  | C[C@@]12COCCN(C1)c1nc(OC[C@@]34CCCN3C[C@H](F)C4)nc3c(F)c(ncc13)-c1cccc3ccc(F)c(c13)CCOC(=O)O2 [Example 304, (16S)-23,32-difluoro-8-(((2R,7aS)-2-fluorotetrahydro-1H-pyrrolo[1,2-a]pyrrol-7a(5H)-yl)methoxy)-16-methyl-14,17,19-trioxa-3,7,9,11-tetraazahexacyclo[20.7.1.1~2,6~.1~11,16~.0~5,10~.0~26,30~]dotriaconta-1(30),2(32),3,5,7,9,22,24,26,28-decaen-18-one]
3 nM | 587 nM | 4 nM | 420 nM |  | 71.8 nM |  |  |  |  |  |  | Cc1cc2[nH]ncc2c2c1CCCC(F)C(=O)N[C@@H]1CCCCN(C1)c1nc(OC[C@@]34CCCN3C[C@H](F)C4)nc3c(F)c-2ncc13 (single isomer, unassigned) [Example 160]
 |  |  |  |  |  | 2 nM | 17 nM | 3 nM | 20 nM | 4.4 nM |  | O=C1CCCCc2c(Cl)cc3[nH]ncc3c2-c2ncc3c(nc(OC[C@@]45CCCN4C[C@H](F)C5)nc3c2F)N2CCC[C@@H](C1)C2 [Example 372]
3 nM | 816 nM | 6 nM | 64 nM | 58.9 nM |  |  |  |  |  |  |  | O=C1OCCc2c(Cl)cc3[nH]ncc3c2-c2ncc3c(nc(OC[C@@]45CCCN4C[C@H](F)C5)nc3c2F)N2CCOCC(CO1)C2 (some centres unmarked) [Example 220]
2 nM | 104 nM | 5 nM | 90 nM | 7.9 nM |  |  |  |  |  |  |  | C[C@@]12CCCCN(C1)c1nc(OC[C@@]34CCCN3C[C@H](F)C4)nc3c(F)c(ncc13)-c1c(c(Cl)cc3[nH]ncc13)CCC[C@H](F)C(=O)N2 (mixture of isomers) [Example 281, (23RS,26R)-18-chloro-23,32-difluoro-4-(((2R,7aS)-2-fluorotetrahydro-1H-pyrrolo[1,2-a]pyrrol-7a(5H)-yl)methoxy)-26-methyl-1,3,5,9,14,15,25-heptaazahexacyclo[24.4.1.1~6,10~.0~2,7~.0~11,19~.0~12,16~]dotriaconta-2,4,6,8,10(32),11,13,16,18-nonaen-24-one]
4 nM | 29 nM | 6 nM | 42 nM | 11.6 nM |  |  |  |  |  |  |  | Fc1c2ncc3c(nc(OC[C@@]45CCCN4C[C@H](F)C5)nc13)N1CCC[C@@H](Cc3ncc(o3)CCc3c(Cl)cc4[nH]ncc4c3-2)C1 [Example 231]
 | 980 nM |  | 480 nM | 109 nM |  |  |  |  |  |  |  | Fc1c2ncc3c(nc(OC[C@@]45CCCN4C[C@H](F)C5)nc13)N1CCC[C@@H](CSCCCCc3c(Cl)cc4[nH]ncc4c3-2)C1 [Example 143]
 |  |  | 82 nM |  | 10.1 nM |  |  |  |  |  | 112 nM | Fc1c2ncc3c(nc(OC[C@@]45CCCN4C[C@H](F)C5)nc13)N1CCC[C@H](C1)c1coc(n1)CCCc1c(Cl)cc3[nH]ncc3c1-2 [Example 246, (18R)-9-chloro-31-fluoro-25-(((2R,7aS)-2-fluorotetrahydro-1H-pyrrolo[1,2-a]pyrrol-7a(5H)-yl)methoxy)-15-oxa-5,6,22,24,26,30,33-heptaazaheptacyclo[25.3.1.1~14,17~.1~18,22~.0~2,10~.0~3,7~.0~23,28~]tritriaconta-1(31),2,4,7,9,14(33),16,23,25,27,29-undecaene]
 | 375 nM |  | 67 nM | 21.8 nM |  |  |  |  |  |  |  | Cc1cc2[nH]ncc2c2c1CCCOC(=O)O[C@@H]1COCCN(C1)c1nc(OC[C@@]34CCCN3C[C@H](F)C4)nc3c(F)c-2ccc13 [Example 192, (26S)-32-fluoro-4-(((2R,7aS)-2-fluorotetrahydro-1H-pyrrolo[1,2-a]pyrrol-7a(5H)-yl)methoxy)-18-methyl-23,25,28-trioxa-1,3,5,14,15-pentaazahexacyclo[24.4.1.1~6,10~.0~2,7~.0~11,19~.0~12,16~]dotriaconta-2,4,6,8,10(32),11,13,16,18-nonaen-24-one]
